From patent US9629861B2, “Compositions and methods for treating bacterial infections using ceftaroline” (Forest Laboratories Holdings Limited, priority 2009, dated 2017)
Where two headings read alike, the source gives them in different places.

Legend:
CYP1A2 [1] = details: human hepatocytes
CYP3A4/5 = experiment: CYP induction in human hepatocytes; type: in vitro ADME
H. parainfluenzae = experiment: Example 5 CAP study, outcome by baseline pathogen; type: in vivo, Haemophilus parainfluenzae
From the text: (§1) Per-pathogen clinical cure rate and favorable microbiological outcome rate at TOC in the mMITTE and ME Populations;

S. pneumoniae [2] = experiment: Example 5 CAP study, outcome by baseline pathogen; type: in vivo, Streptococcus pneumoniae
From the text: as §1

MDRSP [3] = experiment: Example 5 CAP study, outcome by baseline pathogen; type: in vivo, Streptococcus pneumoniae
From the text: as §1

[4] = Example 5
Protocol: The 600-mg dose of ceftaroline fosamil infused over 60 minutes was split into two infusions in order to maintain the blind. For subjects with moderate renal impairment (30 mL/min<CrCl≦50 mL/min), as estimated by the Cockroft-Gault formula, unblinded pharmacy staff or unblinded study staff could adjust the dose of ceftaroline fosamil to two consecutive 200 mg infusions and readjust dose to two 300 mg infusions when renal function improved (CrCl>50 mL/min). The duration of treatment was between 5 to 7 days.
(§7) All subjects who received any amount of study drug were included in the safety analysis. Safety measures included monitoring for adverse events (AE) up to TOC and serious adverse events (SAE) through LFU; recording vital signs, physical examination, electrocardiogram (ECG), and clinical laboratory findings (clinical chemistry, hematology, and urinalysis), at prespecified times throughout the study.

E. coli = experiment: Example 5 CAP study, outcome by baseline pathogen; type: in vivo, Escherichia coli
From the text: as §1

CYP2A6 = biological target: T1, CYP2A6 (Homo sapiens, UniProt P11509); experiment: CYP inhibition in human liver microsomes; type: in vitro ADME
T1 construct: In vitro studies in human liver microsomes; from tissue; host or cells: human liver microsomes
T1 sequence (P11509 whole entry): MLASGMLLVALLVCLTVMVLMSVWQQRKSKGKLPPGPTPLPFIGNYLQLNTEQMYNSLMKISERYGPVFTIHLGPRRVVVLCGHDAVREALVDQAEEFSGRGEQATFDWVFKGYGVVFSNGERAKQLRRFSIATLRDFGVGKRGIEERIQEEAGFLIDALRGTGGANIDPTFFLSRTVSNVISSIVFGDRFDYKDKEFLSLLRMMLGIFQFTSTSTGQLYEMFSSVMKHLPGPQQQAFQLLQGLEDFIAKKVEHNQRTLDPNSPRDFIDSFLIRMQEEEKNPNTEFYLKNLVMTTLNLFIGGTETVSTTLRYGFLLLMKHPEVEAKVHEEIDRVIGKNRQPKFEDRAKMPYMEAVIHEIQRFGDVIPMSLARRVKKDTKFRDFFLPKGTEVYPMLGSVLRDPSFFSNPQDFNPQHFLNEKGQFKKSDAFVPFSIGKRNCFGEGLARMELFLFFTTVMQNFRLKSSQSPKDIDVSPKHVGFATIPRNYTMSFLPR

CYP2C9 = experiment: CYP induction in human hepatocytes; type: in vitro ADME
CYP1A2 [5] = biological target: CYP1A2 (Homo sapiens, UniProt P05177); type: in vitro ADME; details: human liver microsomes
Sequence of CYP1A2 (Homo sapiens, UniProt P05177) (P05177 whole entry): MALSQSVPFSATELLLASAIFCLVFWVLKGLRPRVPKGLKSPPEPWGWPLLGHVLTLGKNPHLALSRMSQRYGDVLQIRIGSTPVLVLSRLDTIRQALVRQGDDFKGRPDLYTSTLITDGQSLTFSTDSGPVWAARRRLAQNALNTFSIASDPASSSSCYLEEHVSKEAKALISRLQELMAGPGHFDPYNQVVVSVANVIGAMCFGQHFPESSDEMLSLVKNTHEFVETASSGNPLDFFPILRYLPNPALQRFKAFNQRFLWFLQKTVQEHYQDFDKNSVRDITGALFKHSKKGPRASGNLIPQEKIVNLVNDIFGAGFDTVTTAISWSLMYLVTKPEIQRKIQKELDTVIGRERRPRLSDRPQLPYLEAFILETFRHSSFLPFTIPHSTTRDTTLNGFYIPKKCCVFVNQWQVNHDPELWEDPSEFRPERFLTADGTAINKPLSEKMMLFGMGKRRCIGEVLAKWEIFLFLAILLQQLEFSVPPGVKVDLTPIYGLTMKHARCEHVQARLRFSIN

S. pneumoniae [6] = experiment: Example 4 CAP study, outcome by baseline pathogen; type: in vivo, Streptococcus pneumoniae
From the text: as §1

MDRSP [7] = experiment: Example 4 CAP study, outcome by baseline pathogen; type: in vivo, Streptococcus pneumoniae
From the text: as §1

[8] = Example 4
Protocol: The 600-mg dose of ceftaroline fosamil infused over 60 minutes was split into two infusions in order to maintain the blind. For subjects with moderate renal impairment (30 ml/min<CrCl≦50 ml/min), as estimated by the Cockroft-Gault formula, unblinded pharmacy staff or unblinded study staff could adjust the dose of ceftaroline fosamil to two consecutive 200 mg infusions and readjust dose to two 300 mg infusions when renal function improved (CrCl>50 mL/min). The duration of treatment was between 5 to 7 days.
as §7

[9] = tested on: Community-Acquired Bacterial Pneumonia (CABP); experiment: Phase 3 CABP Study 1 (Example 5, adjunctive clarithromycin); type: in vivo, human; details: for Clinical Cure Rate at TOC / Treatment Difference in clinical cure rate at TOC: CABP Study 1; for Difference, clinical cure rate at EOT / Difference, favorable microbiological outcome at TOC: ceftaroline minus ceftriaxone, Example 5; for Treatment Difference in clinical cure rate at TOC: versus ceftriaxone
Protocol: (§2) In both treatment groups of CABP Study 1, two doses of oral clarithromycin (500 mg q12h), were administered as adjunctive therapy starting on Study Day 1. No adjunctive macrolide therapy was used in CABP Study 2. Patients with new or progressive pulmonary infiltrate(s) on chest radiography and clinical signs and symptoms consistent with CABP with the need for hospitalization and IV therapy were enrolled in the studies. Treatment duration was 5 to 7 days. A switch to oral therapy was not allowed. The Modified Intent-to-Treat Efficacy (MITTE) population included all patients who received any amount of study drug according to their randomized treatment group and were in PORT (Pneumonia Outcomes Research Team) Risk Class III or IV.
(§3) The primary efficacy endpoint was the clinical response at the Test of Cure (TOC) visit in the co-primary CE and MITTE populations (Table 4).
(§4) The secondary objective of the study was to evaluate the following: the clinical response at end-of-therapy (EOT); the microbiological favorable outcome rate at TOC; the overall (clinical and radiographic) success rate at TOC; the clinical and microbiological response by pathogen at TOC; clinical relapse at late follow-up (LFU); microbiological reinfection/recurrence at LFU; and safety.
(§5) The primary efficacy outcome measures were the per-subject clinical cure rate at TOC in the CE and MITTE Populations. Subjects were considered clinically cured at TOC if they had total resolution of all signs and symptoms of the baseline infection, or improvement of the infection such that no further antimicrobial therapy was necessary.
(§6) Non-inferiority was concluded if the lower limit of the 95% CI was higher than −10%.

CYP2E1 = biological target: T2, CYP2E1 (Homo sapiens, UniProt P05181); experiment: CYP inhibition in human liver microsomes; type: in vitro ADME
T2 construct: In vitro studies in human liver microsomes; from tissue; host or cells: human liver microsomes
T2 sequence (P05181 whole entry): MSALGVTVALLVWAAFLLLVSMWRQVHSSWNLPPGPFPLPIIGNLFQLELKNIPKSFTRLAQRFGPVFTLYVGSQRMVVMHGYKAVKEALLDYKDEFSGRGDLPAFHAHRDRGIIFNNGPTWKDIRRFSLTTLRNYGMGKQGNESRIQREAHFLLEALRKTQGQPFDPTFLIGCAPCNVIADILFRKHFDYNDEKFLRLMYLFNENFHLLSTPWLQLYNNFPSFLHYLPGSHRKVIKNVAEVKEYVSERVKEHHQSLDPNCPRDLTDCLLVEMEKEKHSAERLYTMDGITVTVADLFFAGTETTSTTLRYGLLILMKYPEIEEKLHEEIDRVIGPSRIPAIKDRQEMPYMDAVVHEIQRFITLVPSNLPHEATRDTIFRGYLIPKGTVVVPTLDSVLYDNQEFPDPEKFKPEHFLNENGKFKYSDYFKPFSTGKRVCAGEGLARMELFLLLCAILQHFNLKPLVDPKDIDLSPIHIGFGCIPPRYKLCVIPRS

[10] = tested on: Community-Acquired Bacterial Pneumonia (CABP); experiment: Phase 3 CABP Study 2 (Example 4, no adjunctive macrolide); type: in vivo, human; details: for Clinical Cure Rate at TOC / Treatment Difference in clinical cure rate at TOC: CABP Study 2; for Difference, clinical cure rate at EOT / Difference, favorable microbiological outcome at TOC: ceftaroline minus ceftriaxone, Example 4; for Treatment Difference in clinical cure rate at TOC: versus ceftriaxone
Protocol: as §2, §3
as §4, with “objectives” for “objective”, “were” for “was”, “following:” for “following: the”
as §5, with “The following criteria were used for evaluation: The primary” for “The primary”, “rate at test-of-cure (TOC) in the” for “rate at TOC in the”
as §6

[11] = Safety population, listed as ceftaroline

CCO/N=C(\C(=O)N[C@@H]1C(=O)N2C(C(=O)[O-])=C(Sc3nc(-c4cc[n+](C)cc4)cs3)CS[C@H]12)c1nsc(N)n1 [Ceftaroline]
induction of CYP1A2 (CYP1A2 [1]): not inducers
induction of CYP3A4/5 (CYP3A4/5): not inducers
Favorable Microbiological Outcome at TOC by Baseline Pathogen (H. parainfluenzae; ME): 7/7 (100.0) %
Clinical Cure Rate at the TOC Visit by Baseline Pathogen (H. parainfluenzae; ME population): 7/7 (100.0) %
Favorable Microbiological Outcome at TOC by Baseline Pathogen (S. pneumoniae [2]; ME): 21/24 (87.5) %
Clinical Cure Rate at the TOC Visit by Baseline Pathogen (S. pneumoniae [2]; ME population): 21/24 (87.5) %
Favorable Microbiological Outcome at TOC by Baseline Pathogen (MDRSP [3]; ME): 2/2 (100.0) %
Clinical Cure Rate at the TOC Visit by Baseline Pathogen (MDRSP [3]; ME population): 2/2 (100.0) %
TEAEs leading to premature discontinuation from study drug administration [4]: 3.7%
subjects with SAEs considered possibly or probably related to study drug [4]: 2 subjects
Early withdrawal from study, reason Adverse Event ([4]; MITTE population): 5 (1.7) %
Any AE (TEAE), subjects ([4]; Safety population): 119 (39.9) %
Constipation, subjects ([4]; Safety population): 7 (2.3) %
Diarrhea, subjects ([4]; Safety population): 14 (4.7) %
Headache, subjects ([4]; Safety population): 10 (3.4) %
Hypertension, subjects ([4]; Safety population): 6 (2.0) %
Hypokalemia, subjects ([4]; Safety population): 4 (1.3) %
Insomnia, subjects ([4]; Safety population): 9 (3.0) %
Nausea, subjects ([4]; Safety population): 8 ( 2.7) %
Phlebitis, subjects ([4]; Safety population): 7 (2.3) %
Any AE (TEAE), subjects [4, 11]: 39.9%
Diarrhea, subjects [4, 11]: 4.7%
Headache, subjects [4, 11]: 3.4%
Favorable Microbiological Outcome at TOC by Baseline Pathogen (E. coli; ME): 8/8 (100.0) %
Clinical Cure Rate at the TOC Visit by Baseline Pathogen (E. coli; ME population): 8/8 (100.0) %
inhibition of CYP2A6 (CYP2A6): neither ceftaroline fosamil nor ceftaroline inhibits
induction of CYP2C9 (CYP2C9): not inducers
inhibition of CYP1A2 (CYP1A2 [5]): neither ceftaroline fosamil nor ceftaroline inhibits
Favorable Microbiological Outcome at TOC by Baseline Pathogen (S. pneumoniae [6]; ME): 35/39 (89.7) %
Clinical Cure Rate at the TOC Visit by Baseline Pathogen (S. pneumoniae [6]; ME population): 33/39 (84.6) %
Favorable Microbiological Outcome at TOC by Baseline Pathogen (MDRSP [7]; ME): 2/2 (100.0) %
Clinical Cure Rate at the TOC Visit by Baseline Pathogen (MDRSP [7]; ME population): 2/2 (100.0) %
TEAEs leading to premature discontinuation from study drug administration [8]: 0.6%
any study-drug-related TEAEs, subjects [8]: 12.4%
study-drug-related TEAE: headache [8]: 0.6%
Early withdrawal from study, reason Adverse Event ([8]; MITTE population): 8 (2.8) %
Any AE (TEAE), subjects ([8]; Safety population): 169 (53.7) %
COPD, subjects ([8]; Safety population): 8 (2.5) %
Diarrhea, subjects ([8]; Safety population): 12 (3.8) %
Headache, subjects ([8]; Safety population): 11 (3.5) %
Hypertension, subjects ([8]; Safety population): 8 (2.5) %
Hypokalemia, subjects ([8]; Safety population): 10 (3.2) %
Insomnia, subjects ([8]; Safety population): 10 (3.2) %
Nausea, subjects ([8]; Safety population): 6 ( 1.9) %
Phlebitis, subjects ([8]; Safety population): 10 (3.2) %
Pleural effusion, subjects ([8]; Safety population): 4 (1.3) %
Pneumonia, subjects ([8]; Safety population): 8 (2.5) %
Any AE (TEAE), subjects [8, 11]: 53.7%
Clinical Cure Rate at TOC ([9]; CE population): 194 (86.6) %
Clinical Cure Rate at TOC ([9]; MITTE population): 244 (83.8) %
Difference, clinical cure rate at EOT ([9]; CE): 7.6%
Difference, favorable microbiological outcome at TOC ([9]; ME): 11.0%
Difference, clinical cure rate at EOT ([9]; MITTE): 6.3%
Difference, favorable microbiological outcome at TOC ([9]; mMITTE): 9.3%
Treatment Difference in clinical cure rate at TOC ([9]; CE): 8.4%
Treatment Difference in clinical cure rate at TOC ([9]; MITTE): 6.2%
inhibition of CYP2E1 (CYP2E1): neither ceftaroline fosamil nor ceftaroline inhibits
Clinical Cure Rate at TOC ([10]; CE population): 193 (82.1) %
Clinical Cure Rate at TOC ([10]; MITTE population): 235 (81.3) %
Difference, clinical cure rate at EOT ([10]; CE): 6.0%
Difference, favorable microbiological outcome at TOC ([10]; ME): 1.8%
Difference, clinical cure rate at EOT ([10]; MITTE): 7.4%
Difference, favorable microbiological outcome at TOC ([10]; mMITTE): 0.4%
Treatment Difference in clinical cure rate at TOC ([10]; CE): 4.9%
Treatment Difference in clinical cure rate at TOC ([10]; MITTE): 5.9%
